From patent US10479784B2, “Substituted pyrazin-2-amines as inhibitors of ATR kinase” (Vertex Pharmaceuticals Incorporated, priority 2008, dated 2019)
pKi: −log10 of the molar value.

Biological target: full-length ATR (Homo sapiens (Human), UniProt Q13535)
Assay: ATR Inhibition Assay (radioactive-phosphate incorporation)
Type: biochemical
Conditions: read-out: ATR Ki
Method in brief: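 Ki(app) was derived by non-linear regression of background-corrected initial rates of 33P incorporation into an 800 μM target peptide, read by phosphocellulose filter scintillation counting. Reaction conditions: 5 nM full-length ATR, 10 μM [γ-33P]ATP, pH 7.5 Tris buffer with MgCl2 and DTT, 25 °C, 10-min preincubation, 24 h run.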

full-length ATR, sequence (Q13535 whole entry): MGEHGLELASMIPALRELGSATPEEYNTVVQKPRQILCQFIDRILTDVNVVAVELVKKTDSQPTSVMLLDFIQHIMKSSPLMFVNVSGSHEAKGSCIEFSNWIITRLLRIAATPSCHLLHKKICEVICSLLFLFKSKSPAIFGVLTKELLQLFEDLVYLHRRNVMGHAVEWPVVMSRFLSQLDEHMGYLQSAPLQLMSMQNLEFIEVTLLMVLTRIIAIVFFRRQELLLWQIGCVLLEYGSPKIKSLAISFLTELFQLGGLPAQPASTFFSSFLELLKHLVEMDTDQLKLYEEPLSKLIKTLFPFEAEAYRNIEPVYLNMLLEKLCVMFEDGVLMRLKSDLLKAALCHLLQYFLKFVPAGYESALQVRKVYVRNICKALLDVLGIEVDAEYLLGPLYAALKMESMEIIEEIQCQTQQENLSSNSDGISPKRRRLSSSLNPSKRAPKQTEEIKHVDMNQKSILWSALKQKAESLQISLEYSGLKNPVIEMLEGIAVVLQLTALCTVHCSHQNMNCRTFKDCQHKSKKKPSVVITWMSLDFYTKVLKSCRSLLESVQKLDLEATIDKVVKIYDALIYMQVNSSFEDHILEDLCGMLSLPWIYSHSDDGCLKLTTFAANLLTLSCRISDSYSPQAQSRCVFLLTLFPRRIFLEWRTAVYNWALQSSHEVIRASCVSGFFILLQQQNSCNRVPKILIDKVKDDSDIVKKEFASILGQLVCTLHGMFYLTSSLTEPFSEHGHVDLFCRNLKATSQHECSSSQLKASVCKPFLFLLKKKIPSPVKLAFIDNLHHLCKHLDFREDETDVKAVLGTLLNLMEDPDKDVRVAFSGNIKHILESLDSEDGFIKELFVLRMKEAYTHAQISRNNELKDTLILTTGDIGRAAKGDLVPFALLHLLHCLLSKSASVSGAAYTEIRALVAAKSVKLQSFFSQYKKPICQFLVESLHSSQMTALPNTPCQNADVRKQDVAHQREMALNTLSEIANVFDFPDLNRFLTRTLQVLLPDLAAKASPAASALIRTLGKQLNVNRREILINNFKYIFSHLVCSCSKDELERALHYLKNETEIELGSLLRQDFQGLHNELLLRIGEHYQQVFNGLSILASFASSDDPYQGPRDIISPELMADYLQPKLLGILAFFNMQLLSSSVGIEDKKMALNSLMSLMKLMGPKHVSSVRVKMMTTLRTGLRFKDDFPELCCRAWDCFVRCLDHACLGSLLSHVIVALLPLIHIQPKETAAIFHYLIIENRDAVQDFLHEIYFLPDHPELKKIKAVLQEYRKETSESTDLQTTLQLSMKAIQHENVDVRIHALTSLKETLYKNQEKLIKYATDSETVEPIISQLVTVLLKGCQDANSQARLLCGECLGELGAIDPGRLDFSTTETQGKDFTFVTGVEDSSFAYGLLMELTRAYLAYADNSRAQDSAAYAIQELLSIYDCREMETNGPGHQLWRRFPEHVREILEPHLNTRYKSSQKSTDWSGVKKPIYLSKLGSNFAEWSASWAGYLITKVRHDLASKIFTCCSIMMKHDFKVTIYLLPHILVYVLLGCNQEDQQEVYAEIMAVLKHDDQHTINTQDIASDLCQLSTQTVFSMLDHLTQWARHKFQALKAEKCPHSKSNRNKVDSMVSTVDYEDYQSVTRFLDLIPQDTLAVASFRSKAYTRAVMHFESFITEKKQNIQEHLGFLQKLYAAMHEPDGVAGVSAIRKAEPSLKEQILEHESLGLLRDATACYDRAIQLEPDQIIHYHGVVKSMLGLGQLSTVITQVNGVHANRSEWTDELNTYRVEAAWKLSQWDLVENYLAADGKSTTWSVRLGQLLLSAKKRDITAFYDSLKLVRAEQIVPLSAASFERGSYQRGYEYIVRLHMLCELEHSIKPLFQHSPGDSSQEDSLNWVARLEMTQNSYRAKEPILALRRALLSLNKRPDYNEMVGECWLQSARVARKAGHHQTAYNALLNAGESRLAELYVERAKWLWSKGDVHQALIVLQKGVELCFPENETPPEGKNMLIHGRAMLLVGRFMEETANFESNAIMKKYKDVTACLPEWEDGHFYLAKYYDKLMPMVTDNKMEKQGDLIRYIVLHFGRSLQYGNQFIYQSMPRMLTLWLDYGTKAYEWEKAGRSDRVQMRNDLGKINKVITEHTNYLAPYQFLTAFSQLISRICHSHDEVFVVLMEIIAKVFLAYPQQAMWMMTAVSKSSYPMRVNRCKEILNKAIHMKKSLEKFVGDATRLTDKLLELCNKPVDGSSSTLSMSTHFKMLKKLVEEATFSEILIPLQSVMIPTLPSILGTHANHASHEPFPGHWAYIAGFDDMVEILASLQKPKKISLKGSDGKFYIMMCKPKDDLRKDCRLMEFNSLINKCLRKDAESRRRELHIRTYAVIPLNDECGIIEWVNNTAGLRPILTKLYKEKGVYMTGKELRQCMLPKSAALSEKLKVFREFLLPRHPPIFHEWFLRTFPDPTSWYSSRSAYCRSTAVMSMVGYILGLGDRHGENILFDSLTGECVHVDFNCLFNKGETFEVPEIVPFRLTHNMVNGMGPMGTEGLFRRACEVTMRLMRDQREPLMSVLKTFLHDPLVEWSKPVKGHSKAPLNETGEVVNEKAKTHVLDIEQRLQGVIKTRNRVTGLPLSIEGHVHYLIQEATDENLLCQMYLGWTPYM

Row | pKi | Structure (SMILES)
1 | 5.30 to 7.00 | Cc1cccc(-c2cnc(N)c(-c3nnc(-c4ccccc4)o3)n2)c1 [IA-182, 5-(m-tolyl)-3-(5-phenyl-1,3,4-oxadiazol-2-yl)pyrazin-2-amine]
2 | 7.00 to 8.00 | CCSc1ccccc1-c1cnc(N)c(-c2nnc(-c3ccccc3)o2)n1 [IA-184, 5-(2-ethylsulfanylphenyl)-3-(5-phenyl-1,3,4-oxadiazol-2-yl)pyrazin-2-amine]
3 | 7.00 to 8.00 | CC(C)S(=O)(=O)c1ccc(-c2cnc(N)c(-c3nnc(-c4cccc(C5CNC5)c4)o3)n2)cc1 [IA-185, 3-[5-[3-(azetidin-3-yl)phenyl]-1,3,4-oxadiazol-2-yl]-5-(4-isopropylsulfonylphenyl)pyrazin-2-amine]
4 | 5.30 to 7.00 | Nc1ncc(-c2ccc(N3CCNCC3)nc2)nc1-c1nnc(-c2ccccc2)o1 [IA-186, 3-(5-phenyl-1,3,4-oxadiazol-2-yl)-5-(6-piperazin-1-yl-3-pyridyl)pyrazin-2-amine]
5 | 7.00 to 8.00 | CC(C)S(=O)(=O)c1ccc(-c2cnc(N)c(-c3nnc(-c4cccc(C#N)c4)o3)n2)cc1 [IA-187, 3-[5-[3-amino-6-(4-isopropylsulfonylphenyl)pyrazin-2-yl]-1,3,4-oxadiazol-2-yl]benzonitrile]
6 | 5.30 to 7.00 | CC(C)S(=O)(=O)c1ccc(-c2cnc(N)c(-c3nnc(N4CCC(N)C4)o3)n2)cc1 (centres unmarked) [IA-188, 3-[5-(3-aminopyrrolidin-1-yl)-1,3,4-oxadiazol-2-yl]-5-(4-isopropylsulfonylphenyl)pyrazin-2-amine]
7 | 7.00 to 8.00 | CN(C)C(=O)c1ccc(-c2cnc(N)c(-c3nnc(-c4sccc4C#N)o3)n2)cc1 [IA-189, 4-[5-amino-6-[5-(3-cyano-2-thienyl)-1,3,4-oxadiazol-2-yl]pyrazin-2-yl]-N,N-dimethyl-benzamide]
8 | 5.30 to 7.00 | CS(=O)(=O)c1ccccc1-c1cnc(N)c(-c2nnc(-c3ccccc3)o2)n1 [IA-190, 5-(2-methylsulfonylphenyl)-3-(5-phenyl-1,3,4-oxadiazol-2-yl)pyrazin-2-amine]
9 | ≥ 8.00 | CN(C)CCS(=O)(=O)c1ccc(-c2cnc(N)c(-c3nnc(-c4ccc(O)cc4)o3)n2)cc1 [IA-191, 4-[5-[3-amino-6-[4-(2-dimethylaminoethylsulfonyl)phenyl]pyrazin-2-yl]-1,3,4-oxadiazol-2-yl]phenol]
10 | 5.30 to 7.00 | CN(C)C(=O)c1ccc(-c2cnc(N)c(-c3nnc(N4CCC4)o3)n2)cc1 [IA-192, 4-[5-amino-6-[5-(azetidin-1-yl)-1,3,4-oxadiazol-2-yl]pyrazin-2-yl]-N,N-dimethyl-benzamide]
11 | ≥ 8.00 | CC(C)S(=O)(=O)c1ccc(-c2cnc(N)c(-c3nnc(-c4ccc(O)cc4)o3)n2)cc1 [IA-193, 4-[5-[3-amino-6-(4-isopropylsulfonylphenyl)pyrazin-2-yl]-1,3,4-oxadiazol-2-yl]phenol]
12 | 5.30 to 7.00 | C#Cc1ccccc1-c1cnc(N)c(-c2nnc(-c3ccccc3)o2)n1 [IA-194, 5-(2-ethynylphenyl)-3-(5-phenyl-1,3,4-oxadiazol-2-yl)pyrazin-2-amine]
13 | 7.00 to 8.00 | COc1cccc(-c2nnc(-c3nc(-c4ccc(C(=O)N(C)C)cc4)cnc3N)o2)c1 [IA-195, 4-[5-amino-6-[5-(3-methoxyphenyl)-1,3,4-oxadiazol-2-yl]pyrazin-2-yl]-N,N-dimethyl-benzamide]
14 | ≥ 8.00 | CN(C)C(=O)c1ccc(-c2cnc(N)c(-c3nnc(-c4ccccc4OCCO)o3)n2)cc1 [IA-196, 4-[5-amino-6-[5-[2-(2-hydroxyethoxy)phenyl]-1,3,4-oxadiazol-2-yl]pyrazin-2-yl]-N,N-dimethyl-benzamide]
15 | ≥ 8.00 | Nc1ncc(-c2ccc(S(=O)(=O)C3CCNCC3)cc2)nc1-c1nnc(-c2ccccc2)o1 [IA-197, 3-(5-phenyl-1,3,4-oxadiazol-2-yl)-5-[4-(4-piperidylsulfonyl)phenyl]pyrazin-2-amine]
16 | 7.00 to 8.00 | CN(C)C(=O)c1ccc(-c2cnc(N)c(-c3nnc(-c4cccc(CO)c4)o3)n2)cc1 [IA-198, 4-[5-amino-6-[5-[3-(hydroxymethyl)phenyl]-1,3,4-oxadiazol-2-yl]pyrazin-2-yl]-N,N-dimethyl-benzamide]
17 | 5.30 to 7.00 | CC(C)S(=O)(=O)c1ccc(-c2cnc(N)c(-c3nnc(NC4CCCNC4)o3)n2)cc1 (centres unmarked) [IA-199, 5-[3-amino-6-(4-isopropylsulfonylphenyl)pyrazin-2-yl]-N-(3-piperidyl)-1,3,4-oxadiazol-2-amine]
18 | 5.30 to 7.00 | CN1CCN(c2ccc(-c3cnc(N)c(-c4nnc(-c5ccccc5)o4)n3)cn2)CC1 [IA-200, 5-(6-(4-methylpiperazin-1-yl)pyridin-3-yl)-3-(5-phenyl-1,3,4-oxadiazol-2-yl)pyrazin-2-amine]
19 | ≥ 8.00 | CC(C)S(=O)(=O)c1ccc(-c2cnc(N)c(-c3nnc(-c4ccc(N)cc4)o3)n2)cc1 [IA-201, 3-[5-(4-aminophenyl)-1,3,4-oxadiazol-2-yl]-5-(4-isopropylsulfonylphenyl)pyrazin-2-amine]
20 | 5.30 to 7.00 | Nc1ncc(-c2cccc(CO)c2)nc1-c1nnc(-c2ccccc2)o1 [IA-202, [3-[5-amino-6-(5-phenyl-1,3,4-oxadiazol-2-yl)pyrazin-2-yl]phenyl]methanol]
21 | 5.30 to 7.00 | CCS(=O)(=O)c1ccccc1-c1cnc(N)c(-c2nnc(-c3ccccc3)o2)n1 [IA-203, 5-(2-ethylsulfonylphenyl)-3-(5-phenyl-1,3,4-oxadiazol-2-yl)pyrazin-2-amine]
22 | 7.00 to 8.00 | CC(C)S(=O)(=O)c1ccc(-c2cnc(N)c(-c3nnc(-c4cccc(CN(C)C)c4)o3)n2)cc1 [IA-204, 3-[5-[3-(dimethylaminomethyl)phenyl]-1,3,4-oxadiazol-2-yl]-5-(4-isopropylsulfonylphenyl)pyrazin-2-amine]
23 | ≥ 8.00 | CN(C)C(=O)c1ccc(-c2cnc(N)c(-c3nnc(-c4ccccc4I)o3)n2)cc1 [IA-205, 4-[5-amino-6-[5-(2-iodophenyl)-1,3,4-oxadiazol-2-yl]pyrazin-2-yl]-N,N-dimethyl-benzamide]
24 | 5.30 to 7.00 | CC(C)S(=O)(=O)c1ccc(-c2cnc(N)c(-c3nnc(N4CCCC(N)C4)o3)n2)cc1 (centres unmarked) [IA-206, 3-[5-(3-amino-1-piperidyl)-1,3,4-oxadiazol-2-yl]-5-(4-isopropylsulfonylphenyl)pyrazin-2-amine]
25 | 5.30 to 7.00 | Nc1ncc(-c2ccccc2-c2cnco2)nc1-c1nnc(-c2ccccc2)o1 [IA-207, 5-(2-oxazol-5-ylphenyl)-3-(5-phenyl-1,3,4-oxadiazol-2-yl)pyrazin-2-amine]
26 | ≥ 8.00 | CNC(=N)c1ccc(-c2nnc(-c3nc(-c4ccc(S(=O)(=O)C(C)C)cc4)cnc3N)o2)cc1 [IA-208, 4-[5-[3-amino-6-(4-isopropylsulfonylphenyl)pyrazin-2-yl]-1,3,4-oxadiazol-2-yl]-N-methyl-benzamidine]
27 | 7.00 to 8.00 | CN(C)CCNc1nccc(-c2cnc(N)c(-c3nnc(-c4ccccc4)o3)n2)c1C#N [IA-209, 4-[5-amino-6-(5-phenyl-1,3,4-oxadiazol-2-yl)pyrazin-2-yl]-2-(2-dimethylaminoethylamino)pyridine-3-carbonitrile]
28 | 7.00 to 8.00 | CCn1cc(-c2cnc(N)c(-c3nnc(-c4ccccc4)o3)n2)cn1 [IA-210, 5-(1-ethylpyrazol-4-yl)-3-(5-phenyl-1,3,4-oxadiazol-2-yl)pyrazin-2-amine]
29 | 5.30 to 7.00 | CC(C)S(=O)(=O)c1ccc(-c2cnc(N)c(-c3nnc(NC(=O)[C@@H]4CCCCN4)o3)n2)cc1 [IA-211, (2S)—N-[5-[3-amino-6-(4-isopropylsulfonylphenyl)pyrazin-2-yl]-1,3,4-oxadiazol-2-yl]piperidine-2-carboxamide]
